Test results published in the NIST ThermoML archive (doi:10.1021/acs.jced.8b00403).

Experiment: wn = mass fraction of the nth substance listed
Conditions: 101.33 kPa, Liquid; for viscosity: Concentric cylinders viscometry; for mass density: Vibrating tube method

CC(O)CO (configuration not stated) [1,2-propanediol] + O
Conditions	mass density [kg/m3]	viscosity [mPa·s]
253.15 K, w1 = 0.5005	1062.5	84.94
253.15 K, w1 = 0.672	1070.8	204.36
253.15 K, w1 = 0.8044	1071.6	415.71
253.15 K, w1 = 0.9481	1068.2	1067
253.15 K, w1 = 1	1065.8	1772.4
258.15 K, w1 = 0.3312	1041.7	21.95
258.15 K, w1 = 0.5005	1059.8	55.34
258.15 K, w1 = 0.672	1067.6	128.54
258.15 K, w1 = 0.8044	1068.1	256.2
258.15 K, w1 = 0.9481	1064.7	638.89
258.15 K, w1 = 1	1062.2	1038.3
263.15 K, w1 = 0.3312	1040	15.59
263.15 K, w1 = 0.5005	1056.9	37.52
263.15 K, w1 = 0.672	1064.3	84.22
263.15 K, w1 = 0.8044	1064.5	164.62
263.15 K, w1 = 0.9481	1061	396.61
263.15 K, w1 = 1	1058.6	631.08
268.15 K, w1 = 0.198	1021.7	5.78
268.15 K, w1 = 0.3312	1038.15	11.45
268.15 K, w1 = 0.5005	1054	26.37
268.15 K, w1 = 0.672	1060.9	57.22
268.15 K, w1 = 0.8044	1061.1	109.37
268.15 K, w1 = 0.9481	1057.4	254.76
268.15 K, w1 = 1	1054.9	396.99
273.15 K, w1 = 0.0988	1009.8	2.877
273.15 K, w1 = 0.198	1020.8	4.552
273.15 K, w1 = 0.3312	1036.3	8.655
273.15 K, w1 = 0.5005	1051.1	19.12
273.15 K, w1 = 0.672	1057.5	40.16
273.15 K, w1 = 0.8044	1057.6	75.05
273.15 K, w1 = 0.9481	1053.8	169.13
273.15 K, w1 = 1	1051.3	258
283.15 K, w1 = 0.0988	1008.2	1.991
283.15 K, w1 = 0.198	1017.8	3.017
283.15 K, w1 = 0.3312	1031.2	5.306
283.15 K, w1 = 0.5005	1044.6	10.83
283.15 K, w1 = 0.672	1050.5	21.24
283.15 K, w1 = 0.8044	1050.4	38.42
283.15 K, w1 = 0.9481	1045.6	86.69
283.15 K, w1 = 1	1042.9	116.68
293.15 K, w1 = 0.0988	1005.7	1.454
293.15 K, w1 = 0.198	1014.5	2.171
293.15 K, w1 = 0.3312	1026.3	3.536
293.15 K, w1 = 0.5005	1038.1	6.741
293.15 K, w1 = 0.672	1043.2	12.58
293.15 K, w1 = 0.8044	1042.9	21.75
293.15 K, w1 = 0.9481	1038.2	45.66
293.15 K, w1 = 1	1035.5	59.75
303.15 K, w1 = 0.0988	1002.6	1.148
303.15 K, w1 = 0.198	1010.6	1.599
303.15 K, w1 = 0.3312	1021	2.503
303.15 K, w1 = 0.5005	1031.4	4.51
303.15 K, w1 = 0.672	1035.9	8.01
303.15 K, w1 = 0.8044	1035.4	13.28
303.15 K, w1 = 0.9481	1030.8	26.09
303.15 K, w1 = 1	1028.1	33.26
313.15 K, w1 = 0.0988	999	0.9194
313.15 K, w1 = 0.198	1006	1.241
313.15 K, w1 = 0.3312	1015.3	1.858
313.15 K, w1 = 0.5005	1024.5	3.166
313.15 K, w1 = 0.672	1028.4	5.398
313.15 K, w1 = 0.8044	1027.8	8.638
313.15 K, w1 = 0.9481	1023.2	16
313.15 K, w1 = 1	1020.6	19.92
323.15 K, w1 = 0.0988	994.4	0.7541
323.15 K, w1 = 0.198	1000.8	0.9933
323.15 K, w1 = 0.3312	1009.2	1.436
323.15 K, w1 = 0.5005	1017.4	2.345
323.15 K, w1 = 0.672	1020.8	3.852
323.15 K, w1 = 0.8044	1020.1	5.938
323.15 K, w1 = 0.9481	1015.6	10.4
323.15 K, w1 = 1	1013	12.68
333.15 K, w1 = 0.0988	989.3	0.6304
333.15 K, w1 = 0.198	995.4	0.8167
333.15 K, w1 = 0.3312	1002.7	1.145
333.15 K, w1 = 0.5005	1010	1.802
333.15 K, w1 = 0.672	1013	2.852
333.15 K, w1 = 0.8044	1012.2	4.247
333.15 K, w1 = 0.9481	1007.8	7.094
333.15 K, w1 = 1	1005.3	8.498
343.15 K, w1 = 0.0988	983.5	0.5375
343.15 K, w1 = 0.198	989.2	0.6869
343.15 K, w1 = 0.3312	996	0.9408
343.15 K, w1 = 0.5005	1002.3	1.425
343.15 K, w1 = 0.672	1004.9	2.188
343.15 K, w1 = 0.8044	1004.1	3.161
343.15 K, w1 = 0.9481	999.8	5.053
343.15 K, w1 = 1	997.7	5.95
353.15 K, w1 = 0.0988	977.2	0.4666
353.15 K, w1 = 0.198	982.5	0.5856
353.15 K, w1 = 0.3312	988.9	0.7888
353.15 K, w1 = 0.5005	994.6	1.162
353.15 K, w1 = 0.672	996.9	1.733
353.15 K, w1 = 0.8044	996	2.433
353.15 K, w1 = 0.9481	991.9	3.734
353.15 K, w1 = 1	989.5	4.332
